Patent US20050192217A1, “Utilization of lipopeptides or lipoproteins in wound treatment and infection prophylaxis” (priority 1998, published 2005)
“And” between values parts separate entries of the source, which are not always exact repeats. Equal entries are not always repeated. Marks after values point to notes of the source that are not given here. Ends that are not written are not given here. * marks the point of attachment. X1 = 2,3‑bispalmitoyloxy‑(2S)‑propyl, CCCCCCCCCCCCCCCC(=O)OC[C@@H](C*)OC(=O)CCCCCCCCCCCCCCC; Propyl(2R-PamO,3-PamO) = CCCCCCCCCCCCCCCC(=O)OC[C@H](C*)OC(=O)CCCCCCCCCCCCCCC

Assays:
peritoneal leukocytes = test: Leukocyte inflow into the peritoneal cavity after intraperitoneal injection; assay type: in vivo, NMRI mice; details: for PEC: 72 hours
Experimental: The model of inflow of granulocytes and macrophages into the peritoneal cavity of the mouse served as an example of the effectiveness of synthetic lipopeptides or liposomes into which such lipopeptides were incorporated. NMRI-outbred mice were used as experimental animals in order to exclude genetic peculiarities.
At time 0, the following preparations are injected in a sterile manner and in physiological sodium chloride solution into the peritoncal cavity of the experimental animals. Groups of 6 mice were killed after different times, the peritoneal cavity was washed with 1.2 ml of sterile sodium chloride solution and the number of leukocytes and the leukocyte composition was determined in this cell suspension.
Here, as above, groups of 5 NMRI mice were treated with different amounts of R-MALP-2=S-[2,3-Bispalmitoyloxy-(2R)-propyl]cysteinyl-GNNDESNISFKEK (SEQ ID NO:10) or S-MALP-2=S-[2,3-Bispalmitoyloxy-(2S)-propyl]cysteinyl-GNNDESNISFKEK (SEQ ID NO:8)applied intraperitoneally, and after 3 days the total number as well as the composition of the peritoneal leukocytes were determined.

skin of NMRI mice = test: Intracutaneous application in the skin: leukocyte accumulation and new tissue formation; assay type: in vivo; details: 2 μg intracutaneously
Experimental: The following experiment was carried out in order to show the effect of MALP-2 upon intracutaneous application.

wounds [1] = test: Wound-healing experiment; assay type: in vivo, (diabetic) C57BLKS/J-m+/+-Lepr^db mice; details: 5 μg in 100 μL into the wound each day up to day 4, diabetic mice
Experimental: A wound-healing experiment was carried out as follows. On day 1, (diabetic) C57BLKS/J-m+/+-Lepr^db mice were shaved on the back. On day 0, the animals were anesthetized with ether and the backs were disinfected with Braunoderm. After that, circular regions (1.3 cm diameter) were cut from the skin of the back of each mouse. The edges of the wound were treated with benzoin tincture; then 100 μL of the MALP-2 preparation or of the vehicles were introduced into each wound (10 mice for each treatment group). The wounds were covered with transparent patches of Tegaderm. Each day, up to day 4, 100 μL of the preparation (content 5 μg of MALP-2) or vehicle preparation was injected into the wound bed through the Tegaderm patches or placed in the wound when the bandage was changed. The mice were kept individually in separate cages. In order to avoid infections, baytril (Bayer) was introduced in the drinking water (50 mg/L of enrofloxacin). The bandages were changed once a week under ether anesthesia, and the wound edges were recorded on microscope slides. The areas shown were determined with a standard CCD camera using Scionlmage software. The wounds were checked visually for infections; liquid samples from obviously infected wounds were tested on blood agar plates. Mice with infected wounds were removed from further analyses.

abdominal sepsis = test: Colon ascendens stent peritonitis model, survival after pretreatment; assay type: in vivo, C57BL/6 mice; details: 2 μg i.p. two days before the surgical intervention
Experimental: “Colon ascendens stent peritonitis” is a new model for abdominal sepsis, which may follow surgical intervention [Zantl et al., Infekt. Immun., 66:2300-2309 (1998)]. The following experiments were carried out in order to evaluate the ability of MALP-2 to increase the survival rate in this model. Groups of 12 to 18 C57BL/6 mice were injected intraperitoneally with 2 μg of S-MALP-2 in 200 μL of physiological sodium chloride solution or with the same volume of physiological sodium chloride solution either 2 or 4 days before surgical intervention. The surgical intervention was carried out under ether anesthesia. The abdomen was disinfected with 70% ethanol and then opened by section in the middle line (1 cm). A venous catheter (16 gauge) was inserted into the lumen of the […] colon and secured with two stitches using Ethilon thread (7/0). Then the inner needle of the stent was removed, the catheter was shortened to a length of a few millimeters and a small drop of feces was pressed out from the catheter. The peritoneal cavity was rinsed with 0.5 Ml of sodium chloride solution before closing the abdomen. Among the mice with the control, sodium chloride solution (18 per group), none lived longer than 90 h. […]

skin sections = test: Infiltration of cells and proliferation by nucleic acids in skin sections after intracutaneous injection; assay type: in vivo, C57BLKS/J mice
Experimental: 1. Determination of infiltration of cells and proliferation by measurement of nucleic acids in skin sections after intracutaneous (ic) injection of various MALP-2 doses. On day 1, the back of C57BLKS/J mice was shaved and hair was removed with Veet. On day 0, the animals were anesthetized with metofane; various doses of MALP-2, dissolved in 30 percent 2-propanol, were injected in volumes of up to 10 μL onto the back (ic). Corresponding volumes of the vehicle without MALP-2 were injected onto the back of the same mice at another location. The animals were killed 10 days later, and punched skin sections (diameter 0.8 cm) were taken from the MALP-2 injection sites and from the control injection sites. The skin biopsies were defatted by extraction with methanol, methanol/chloroform (1+1) and chloroform for 15 minutes and were hydrolyzed in 10 N Hcl overnight at 110° C. The samples were dried, taken up in water and clarified by filtration through a sterile filter (0.2 μm); the nucleic acids were determined by measuring the absorption at 260 nm. […] At this dose, the nucleic acid content increased at the MALP-2 injection site by 97±43% in comparison to the corresponding control biopsy (4 animals per group).

wounds [2] = test: Cell colonization and proliferation (nucleic acids) in treated wounds; assay type: in vivo, C57BLKS/J-m+/+Lepr^db mice (diabetic); details: diabetic mice, after 10 days
Experimental: 2. Cell colonization and proliferation were measured in the skin section (0.8 cm diameter) of wounds which were treated with various amounts of MALP-2. For this experiment, (C57BLKS/J-m+/+Lepr^db mice (diabetic) were shaved on the back and hair was removed with Veet. The animals were anesthetized with metofane and their backs were disinfected with Braunol. Then circular skin segments (0.8 cm diameter) were taken from the back of each mouse. The wounds were covered with transparent hydrofilm (Hartmann, Germany); MALP-2 or other vehicles were injected into the wound bed through the film in a volume of 50 μL. After 10 days, the animals were killed; the thin layer of cells, which closes the wound, was sectioned ([…]). The punched samples were hydrolyzed and the nucleic acids determined as before. […] At this dose, 349±24 μg of nucleic acid per biopsy sample were found in the animals treated with MALP-2 while the value was 142±22 μg in the comparison samples (4 animals per group; p<0.0001).

## S-[2,3-Bispalmitoyloxy-(2R)-propyl]cysteinyl-GNNDESNISFKEK (C(Propyl(2R-PamO,3-PamO))GNNDESNISFKEK) [R-MALP-2, reference compound]
Peritoneal leukocytes; 10 μg i.p., group mean φ of 5
  PEC: 8.64 ± 3 ×10^6
Peritoneal leukocytes; 10 μg i.p., individual animals A-E
  PEC: 11.1 ×10^6 and 4.05 ×10^6 and 11.4 ×10^6 and 7.65 ×10^6 and 9 ×10^6

## S-[2,3-Bispalmitoyloxy-(2S)-propyl]cysteinyl-GNNDESNISFKEK (C(X1)GNNDESNISFKEK) [S-MALP-2]
Peritoneal leukocytes; 1 μg i.p., group mean φ of 5
  PEC: 10.2 ± 2.2^a ×10^6
Peritoneal leukocytes; 1 μg i.p., individual animals A-E
  PEC: 9.1 ×10^6 and 10.8 ×10^6 and 9.35 ×10^6 and 13.7 ×10^6 and 7.9 ×10^6
Peritoneal leukocytes; 5 μg i.p., group mean φ of 5
  PEC: 14.5 ± 1.9^a,b ×10^6
Peritoneal leukocytes; 5 μg i.p., individual animals A-E
  PEC: 14.4 ×10^6 and 15.2 ×10^6 and 17.3 ×10^6 and 13.1 ×10^6 and 12.5 ×10^6
Peritoneal leukocytes; i.p., after 3 days, groups of 5 NMRI mice
  in vivo effect on peritoneal leukocytes, S-MALP-2 compared with R-MALP-2: clearly more effective
Skin of NMRI mice; after 3 days
  accumulation of leukocytes at the injection site: a clear accumulation of leukocytes is observed
Skin of NMRI mice; after 6 days
  formation of new tissue and vessels: new tissue and vessels are formed
Wounds [1]
  wound healing (wound area, FIG. 7): significant acceleration of wound healing
Abdominal sepsis
  animals surviving for 150 h or longer: 4 out of 12

## S-[2,3-bispalmitoyloxy-(2RS)-propyl]cysteinyl-GNNDESNISFKEK [MALP-2]
Peritoneal leukocytes; 9 μg i.p., after 72 hours, groups of 6 animals, mean
  Peritoneal cells: 11.2 ± 3.1^b ×10^6
Skin sections; 5 μg per injection site ic, 10 days, 4 animals per group
  increase of nucleic acid content at the injection site in comparison to the control biopsy: 97±43%
Skin sections; intracutaneous injection, skin biopsy 10 days later
  optimal dose per injection site: 5 µg
Wounds [2]; 5 μg per wound, 4 animals per group
  nucleic acid per biopsy sample: 349 ± 24 µg
Wounds [2]; injected into the wound bed
  optimal dose per wound: 5 µg
